Source: patent US20250109127A1, “METHODS OF USE OF PHENOXYPROPYLAMINE COMPOUNDS TO TREAT DEPRESSION” (Minerva Neurosciences, Inc., priority 2013, published 2025)
Where “and” joins values, the source holds several entries; their conditions need not be identical. Identical values can stand only once.

Test system: dopamine release in the rat prefrontal cortex
Experiment: Microdialysis: dopamine release in prefrontal cortex after I.P. administration
Format: in vivo
Conditions: for DOPAMINE in dialysate, MEAN / DOPAMINE in dialysate, individual animals: Citalopram 10 mg/kg I.P.
Protocol: The aim of the study was to evaluate, using microdialysis, the effects of an intraperitoneal (I.P.) administration in rats of three different doses of SON-117 on dopamine and its metabolites, serotonin and its metabolite (5-HIAA), and norepinephrine levels in prefrontal cortex.
Thirty-two adult male Wistar rats were used for the whole study (4 groups of eight animals planned for the study, Table 1).
Surgery was performed on rats weighing about 300 g at the beginning of the experiments. Rats were anaesthetized with Ketamine (50 mg/kg) & Xylazine (15 mg/kg) by intramuscular administration. The animals were placed in a stereotaxic apparatus in the flat-skull position at a constant setting of −3.3 mm between ear bars and the incisor bar. The animals were treated with a local anesthesic (xylocaine 1%, Astra Zeneca) and an analgesic (Temgesic, from Schering Plough, 0.05 mg/kg, s.c.). A rostrocaudal midline incision was made with a lancet to expose the dorsal skull surface. The “stereotaxic zero” was defined by the Bregma in accordance with Paxinos and Watson's atlas (1986). A hole was drilled in the skull with a drill and the meninges were pierced with a sterile needle to implant a CMA12 guide cannula which later received the dialysis probe.
Coordinates used for implanting guide cannula in prefrontal cortex from Bregma were anteroposterior 3.7 mm, mediolateral 0.8 mm, and dorsoventral −2 mm (top of the probe was at −5 mm). The guide cannula was fixed to the skull with two stainless steel screws (1.88 mm outside diameter) anchored. An application of dental cement was added. A plastic collar allowed each animal to be tethered to a Swivel assembly of the CMA 120 awake animal system. Following surgery, rats were kept in individual cages and allowed to recover for a minimum of 3-5 days before the experimentation. The rats were handled and put in plastic bowl for 10 min at least every day to habituate the animals to their new environment for the dialysis. An I.P. administration with saline was also performed every day.
Dialysis probes (CMA12/3 mm, membrane, 20 kD cut-off, Carnegie Medicine, Stockholm, Sweden), were carefully washed before inserting into the guide cannula. The wash was performed with the artificial cerebrospinal fluid (aCSF) medium (NaCl 147 mM, KCl 2.7 mM, CaCl2 1.2 mM, MgCl2 0.85 mM) at room temperature. The dialysis system was then equilibrated at 20° C. at a perfusion rate of 1 μl/min with a Carnegie pump (CMA100). All catheters (FEP tubing, internal volume of 1.2 μl/10 cm, and tubing adaptors) used for microdialysis were treated in the same conditions.
The probes duly prepared were inserted into the guide cannula and the CMA120 Swivel assembly secured to the animal using a plastic collar. Flow through the dialysis probe with aCSF was maintained at a rate of 1 μl/min during the whole experimentation. The first four fractions (corresponding to 2 hours) were discarded to avoid the effects of parenchymal disturbance and to ensure that an approximate steady-state level was reached. Fractions were then collected over a period of 8.5 h during which time the animals remained quiet. The dialysates were automatically collected with an autosampler (microfraction collector CMA 140, Carnegie Medicin) and stored at −80° C. until analysis. […] Perfusion was then maintained for 7 hours with aCSF. The dialysates (30 μl) were collected into 300 μl vials, transferred into dry ice and then kept frozen (−80° C.) until analysis. Frozen samples were shipped to a partner for analysis. At the end of the microdialysis study, a PBS with colored ink was perfused through the probe in order to visualize the dialyzed area.
Catecholamine assay: Concentrations of dopamine, DOPAC, HVA, 5-HIAA, 5-HT, and norepinephrin were determined for each sample by HPLC coupled with electrochemical detection.

Structure (SMILES): CN(C)CCCC1(c2ccc(F)cc2)OCc2cc(C#N)ccc21 (centres unmarked) [Citalopram, citalopram, reference compound]
- DOPAMINE in dialysate, MEAN (T0-T30 min): 125.10 % of respective basal
- DOPAMINE in dialysate, MEAN (T30-T1 h): 100.99 % of respective basal
- DOPAMINE in dialysate, individual animals (T30-T1 h): 140.37 % of respective basal and 66.54 % of respective basal and 36.31 % of respective basal and 85.24 % of respective basal and 123.31 % of respective basal and 48.94 % of respective basal and 154.56 % of respective basal and 96.98 % of respective basal
- DOPAMINE in dialysate, MEAN (T1 h 30-T2 h): 186.16 % of respective basal
- DOPAMINE in dialysate, individual animals (T1 h 30-T2 h): 866.34 % of respective basal and 87.95 % of respective basal and 112.22 % of respective basal and 92.11 % of respective basal and 107.27 % of respective basal and 89.55 % of respective basal and 53.23 % of respective basal and 51.41 % of respective basal
- DOPAMINE in dialysate, MEAN (T1 h-T1 h 30): 170.05 % of respective basal
- DOPAMINE in dialysate, individual animals (T1 h-T1 h 30): 573.74 % of respective basal and 97.67 % of respective basal and 64.11 % of respective basal and 123.43 % of respective basal and 30.69 % of respective basal and 110.39 % of respective basal and 169.03 % of respective basal and 176.68 % of respective basal
- DOPAMINE in dialysate, MEAN (T2 h 30-T3 h): 108.77 % of respective basal
- DOPAMINE in dialysate, individual animals (T2 h 30-T3 h): 225.14 % of respective basal and 50.88 % of respective basal and 108.16 % of respective basal and 122.69 % of respective basal and 62.34 % of respective basal and 107.84 % of respective basal and 55.41 % of respective basal and 165.66 % of respective basal
- DOPAMINE in dialysate, MEAN (T2 h-T2 h 30): 255.07 % of respective basal
- DOPAMINE in dialysate, individual animals (T2 h-T2 h 30): 1031.09 % of respective basal and 91.06 % of respective basal and 160.05 % of respective basal and 100.78 % of respective basal and 166.56 % of respective basal and 132.77 % of respective basal and 334.66 % of respective basal and 26.69 % of respective basal
- DOPAMINE in dialysate, MEAN (T3 h 30-T4 h): 115.67 % of respective basal
- DOPAMINE in dialysate, individual animals (T3 h 30-T4 h): 243.96 % of respective basal and 23.86 % of respective basal and 113.64 % of respective basal and 73.20 % of respective basal and 174.87 % of respective basal and 59.22 % of respective basal and 97.27 % of respective basal and 119.98 % of respective basal
- DOPAMINE in dialysate, MEAN (T3 h-T3 h 30): 151.97 % of respective basal
- DOPAMINE in dialysate, individual animals (T3 h-T3 h 30): 49.37 % of respective basal and 157.89 % of respective basal and 78.55 % of respective basal and 231.36 % of respective basal and 125.19 % of respective basal and 190.71 % of respective basal and 225.63 % of respective basal
- DOPAMINE in dialysate, MEAN (T4 h 30-T5 h): 103.71 % of respective basal
- DOPAMINE in dialysate, individual animals (T4 h 30-T5 h): 201.72 % of respective basal and 24.62 % of respective basal and 85.39 % of respective basal and 56.71 % of respective basal and 60.52 % of respective basal and 195.94 % of respective basal and 92.15 % of respective basal
- DOPAMINE in dialysate, MEAN (T4 h-T4 h 30): 197.23 % of respective basal
- DOPAMINE in dialysate, individual animals (T4 h-T4 h 30): 337.02 % of respective basal and 36.95 % of respective basal and 127.24 % of respective basal and 110.17 % of respective basal and 45.45 % of respective basal and 94.94 % of respective basal and 255.00 % of respective basal and 192.48 % of respective basal
- DOPAMINE in dialysate, MEAN (T5 h 30-T6 h): 143.61 % of respective basal
- DOPAMINE in dialysate, individual animals (T5 h 30-T6 h): 63.71 % of respective basal and 183.35 % of respective basal and 112.87 % of respective basal and 229.69 % of respective basal and 57.13 % of respective basal and 228.31 % of respective basal and 145.07 % of respective basal
- DOPAMINE in dialysate, MEAN (T5 h-T5 h 30): 151.58 % of respective basal
- DOPAMINE in dialysate, individual animals (T5 h-T5 h 30): 209.25 % of respective basal and 54.45 % of respective basal and 141.19 % of respective basal and 97.47 % of respective basal and 150.97 % of respective basal and 246.92 % of respective basal
- DOPAMINE in dialysate, MEAN (T6 h 30-T7 h): 152.65 % of respective basal
- DOPAMINE in dialysate, individual animals (T6 h 30-T7 h): 300.59 % of respective basal and 88.72 % of respective basal and 128.46 % of respective basal and 71.16 % of respective basal and 147.69 % of respective basal and 77.59 % of respective basal and 325.54 % of respective basal and 82.54 % of respective basal
- DOPAMINE in dialysate, MEAN (T6 h-T6 h 30): 90.10 % of respective basal
- DOPAMINE in dialysate, individual animals (T6 h-T6 h 30): 138.93 % of respective basal and 48.75 % of respective basal and 107.97 % of respective basal and 57.49 % of respective basal and 83.90 % of respective basal and 102.96 % of respective basal and 83.47 % of respective basal and 66.13 % of respective basal
- DOPAMINE in dialysate, MEAN (T-30 min-T0 (pre-dose)): 107.61 % of respective basal
- DOPAMINE in dialysate, MEAN (T-1 h 30-T-1 h (pre-dose)): 77.78 % of respective basal
- DOPAMINE in dialysate, individual animals (T-1 h 30-T-1 h (pre-dose)): 71.31 % of respective basal
- DOPAMINE in dialysate, MEAN (T-1 h-T-30 min (pre-dose)): 98.79 % of respective basal
- dopamine levels, increase (not significant) (citalopram 10 mg/kg I.P., from T1.5 h and 2.5 h): 255%
